Experimental findings from article PMC8780785 (Molecules, 2022) are described below.

The structures appear in SMILES notation. ≈ marks a conversion by molar mass, not a printed value. Where only a bound is given, the exact number is not on record here.

Series [1] is described as follows: Antioxidative potential over the three methods (ABTS, DPPH, luminol). As to conditions: range depending on the method used. As to the method: Chemiluminescence Assay: The assay of the antioxidant properties of the tested dyes was based on the measurement of luminol chemiluminescence induced by hydroxyl radicals in the Fe^2+-EDTA-H2O2-luminol system. […] Afterwards, the samples were placed in a Berthold–Lumat LB 9506 luminometer, and the solutions of reagents were added automatically as follows: 1.5 mM Fe^2+-EDTA (100 µL) and 4.4 mM H2O2 (100 µL). The chemiluminescence was measured with (I1) or without (I0) the addition of the tested dye. The inhibitory rate (IR) was calculated according to the following equation: IR(%)=(1−I1/Io)×100 DPPH assay: […] […] The change in absorbance caused by the tested dyes (XP) and ultrapure water as a negative control (XC) was monitored at 515 nm using a multiplate reader (Spark, Tecan, Austria). Simultaneously, the absorbance of the dye at a wavelength of 515 nm was investigated as a control of the dye–colour correction (XD). The radical reduction rate (DR) was calculated according to the following equation: DR(%)=(XC−(XP−XD)/XC)×100% ABTS assay: In this method, the ability of the tested dye to reduce the dark green ABTS radical cation (ABTS^●+) was evaluated. […] Next, the ABTS^●+ solution was diluted with PBS to an absorbance of 0.7 at 734 nm measured using a Tecan plate reader (Spark, Tecan, Austria). […]
A general note: Loss of DPPH colour is used to gauge radical scavenging.

For another series, the system named is S. aureus ATCC 25923. Briefly: MIC and MBC determination (CLSI protocol), S. aureus. The format is cell-based. As to conditions: Staphylococcus aureus, ATCC25923, read-out: MBC S. aureus. As to the method: (§1) The stock solutions (10 mg/mL) of the tested substances were prepared in distilled water and afterwards diluted to the appropriate concentration in Mueller–Hinton Bullion. In each well of a 96-well plate, 300 µL of the mixture was inoculated with 10 µL of the bacterial culture (final density~10^2 cfu/mL). […] Then, 10 µL of the suspension from each well was transferred to a fresh sterile medium and incubated for another 24 h at 37 °C. The lack of turbidity indicated bactericidal activity of the investigated substances and the MBC value was thus determined.

Series [2] concerns human normal colon fibroblast cell line CCD-18Co. Briefly: Cytotoxicity, LDH assay, fibroblasts. The format is cell-based. As to conditions: after 24 h. As to the method: (§2) Cell cultures: The research was conducted on human normal colon epithelial cell line CCD-841 CoTr (ACCT, No. CRL-1807) and human normal colon fibroblast cell line CCD-18Co (ATCC, No. CRL-1459) obtained from the American Type Culture Collection (ATCC, Manassas, VA, USA). The cells were grown in a mixture of DMEM and RPMI 1640 media (1:1) containing 10% (v/v) of foetal bovine serum (FBS) and antibiotics (100 U/mL penicillin and 100 μg/mL streptomycin) and kept in standard conditions (at 37 °C in humidified atmosphere of 5% CO2). For the MTT and LDH tests, cells at the density of 1 × 10^5 cells /mL were seeded on 96-well plates. […] Lactate dehydrogenase(LDH) assay: This assay measures lactate dehydrogenase (LDH) released to the medium by cells with a damaged plasma membrane. […] Absorbance was recorded on a microplate reader (Spark, Tecan, Austria) at 490 nm with a reference wavelength at 690 nm. Results obtained from three independent experiments were reported as cell viability (%) calculated according to the formula: cell viability (%) = (100 − Abssample × Abscontrol^−1) × 100% All analyses were performed in triplicate and presented as mean ± SD. The IC50 value was calculated by nonlinear regression using a curve fitting program in GraphPad Prism 5.0.

Another series in a line: DPPH assay (antioxidant). As to conditions: concentration reducing 50% of radicals. As to the method:
DPPH assay: […] Then, 100 µL of the tested dye was added to a 96-well plate containing 100 µL of a freshly prepared DPPH solution in 95% ethanol. […] The mixture was incubated at room temperature for 20 min. The change in absorbance caused by the tested dyes (XP) and ultrapure water as a negative control (XC) was monitored at 515 nm using a multiplate reader (Spark, Tecan, Austria). Simultaneously, the absorbance of the dye at a wavelength of 515 nm was investigated as a control of the dye–colour correction (XD). The radical reduction rate (DR) was calculated according to the following equation: DR(%)=(XC−(XP−XD)/XC)×100% All analyses allowing determination of antioxidative properties were performed in triplicate in room temperature 22 ± 3 °C. […] Trolox was used as positive controls for each technique.

Series [3] in a line: Cytotoxicity regardless of assay method and cells used. The format is cell-based. As to conditions: human; regardless of the toxicity assay method and the cells used; read-out: IC50 (cytotoxicity), lowest value.
Experimental: For the MTT and LDH tests, cells at the density of 1 × 10^5 cells /mL were seeded on 96-well plates. After 24 h incubation, the medium was replaced with a fresh one with 2% of FBS supplemented with ANS or not (control).
MTT assay: This method is used to determine cell viability and proliferation. It is based on the measurement of the oxidoreductive activity of mitochondria with the yellow dye 3-(4,5-dimethylthiazo-2-yl)-2,5-diphenyl-tetrazolium bromide (MTT) which is metabolised in living cells to purple formazan crystals. After 24 h incubation with the examined compounds, 25 µL of MTT (5 mg/mL) was introduced onto each well and incubated for 3 h. Then, to stop the reaction and dissolve the formazan crystals, 100 µL of a 10 % SDS solution in 0.01 N HCL was added. The following day, the absorbance was determined spectrophotometrically at 570 nm using a microplate reader (Spark, Tecan, Austria).
Results obtained from three independent experiments were reported as cell viability (%) calculated according to the formula: cell viability (%) = (100 − Abssample × Abscontrol^−1) × 100% […]
Another series concerns Vibrio fisheri. Briefly: Environmental toxicity, 81.9% Basic Test Microtox protocol. The format is cell-based. As to conditions: 5 min. From the text: Toxicity was expressed as half maximal effective concentration (EC50) according to the 81.9% Basic Test Microtox protocol. All reagents and Vibrio […] bacterium were purchased from […]), the Polish representative of Modern Water Company (New Castle, DE, USA).

In series [4] the test system is human normal colon epithelial cell line CCD-841 CoTr. Briefly: Cytotoxicity, MTT assay, colon epithelial cells. The format is cell-based. As to conditions: CCD-841, 24 h, read-out: IC50 Colon Epithelial Cells MTT. As to the method: (§3) Cell cultures: The research was conducted on human normal colon epithelial cell line CCD-841 CoTr (ACCT, No. CRL-1807) and human normal colon fibroblast cell line CCD-18Co (ATCC, No. CRL-1459) obtained from the American Type Culture Collection (ATCC, Manassas, VA, USA). The cells were grown in a mixture of DMEM and RPMI 1640 media (1:1) containing 10% (v/v) of foetal bovine serum (FBS) and antibiotics (100 U/mL penicillin and 100 μg/mL streptomycin) and kept in standard conditions (at 37 °C in humidified atmosphere of 5% CO2). For the MTT and LDH tests, cells at the density of 1 × 10^5 cells /mL were seeded on 96-well plates. […] MTT assay: This method is used to determine cell viability and proliferation. […] Then, to stop the reaction and dissolve the formazan crystals, 100 µL of a 10 % SDS solution in 0.01 N HCL was added. The following day, the absorbance was determined spectrophotometrically at 570 nm using a microplate reader (Spark, Tecan, Austria). Results obtained from three independent experiments were reported as cell viability (%) calculated according to the formula: cell viability (%) = (100 − Abssample × Abscontrol^−1) × 100% All analyses were performed in triplicate and presented as mean ± SD. The IC50 value was calculated by nonlinear regression using a curve fitting program in GraphPad Prism 5.0.
(Formazan colour is commonly taken as a measure of viable cells.)

A further series in a line: ABTS assay (antioxidant). As to conditions: concentration reducing 50% of radicals. As to the method:
ABTS assay: In this method, the ability of the tested dye to reduce the dark green ABTS radical cation (ABTS^●+) was evaluated. First, 5 mM phosphate buffer pH 7.4 (PBS) and 7.4 mM ABTS solution were prepared. During the ABTS solution preparation, ABTS was dissolved and ABTS^●+ was generated by reacting with K2S2O8 (2.4 mM final concentration) in a dark bottle at room temperature for 16–18 h. Next, the ABTS^●+ solution was diluted with PBS to an absorbance of 0.7 at 734 nm measured using a Tecan plate reader (Spark, Tecan, Austria). ABTS^●+ (990 µL) was added to the tested dye sample (10 µL) in a 96-well plate and incubated for 10 min at room temperature. The tested dye concentration was in the range from 0.01 to 1 mg/mL. Simultaneously, the negative control (XC) and the control of dye colour correction (XD) were incubated. The change in the absorbance of ABTS^●+ with the dye sample (XP) and controls were measured in the plate reader at 734 nm and the ABTS^●+ reduction rate (AR) was calculated according to the following equation: AR=(XC−(XP−XD)/XC)×100% All analyses allowing determination of antioxidative properties were performed in triplicate in room temperature 22 ± 3 °C. […] Trolox was used as positive controls for each technique.

The test system of series [5] is S. epidermidis ATCC 14990. Briefly: MIC and MBC determination (CLSI protocol), S. epidermidis. It is filed as cell-based. As to conditions: Staphylococcus epidermidis, ATCC14990, read-out: MBC S. epidermidis. As to the method:
as §1

Series [6] concerns human normal colon epithelial cell line CCD-841 CoTr. Description: Cytotoxicity, LDH assay, colon epithelial cells. It is filed as cell-based. As to conditions: after 24 h. As to the method:
as §2

Series [7] is described as follows: Cyclic voltammetry of the ANS substrate. As to conditions: 1 mM substrate, 0.1 M sodium tartrate buffer pH 4.5. The format is physicochemical. As to the method: All measurements were performed for the 1 mM substrate dissolved in 0.1 M sodium tartrate buffer at pH 4.5 in triplicate at room temperature 22 ± 3 °C. The potential was scanned with the scan speed of 50 mV/s from −400 to 1500 mV vs. Ag/AgCl/KClsat after holding the electrochemical system at the initial potential for 10 s.

In the next series the test system is laccase (LAC). As to conditions: read-out: KM (Michaelis–Menten constant); 0.1 M sodium-tartrate buffer pH 4, 440 nm, Lineweaver–Burk. From the text: The reaction mixture was scanned to determine the λ max cha-racterizing the main reaction product od dye using a Cary 50 Bio spectrophotometer (Varian, Palo Alto, CA, USA).
The nature of series [8]: Chemiluminescence assay (luminol, antioxidant). As to conditions: concentration reducing 50% of radicals. As to the method: Chemiluminescence Assay: The assay of the antioxidant properties of the tested dyes was based on the measurement of luminol chemiluminescence induced by hydroxyl radicals in the Fe^2+-EDTA-H2O2-luminol system. […] Afterwards, the samples were placed in a Berthold–Lumat LB 9506 luminometer, and the solutions of reagents were added automatically as follows: 1.5 mM Fe^2+-EDTA (100 µL) and 4.4 mM H2O2 (100 µL). The chemiluminescence was measured with (I1) or without (I0) the addition of the tested dye. The inhibitory rate (IR) was calculated according to the following equation: IR(%)=(1−I1/Io)×100 All analyses allowing determination of antioxidative properties were performed in triplicate in room temperature 22 ± 3 °C. […] Trolox was used as positive controls for each technique.

The test system of series [9] is human normal colon fibroblast cell line CCD-18Co. Briefly: Cytotoxicity, MTT assay, fibroblasts. As to conditions: 24 h, read-out: IC50 Fibroblasts MTT. The format is cell-based. As to the method:
as §3

By MBC is commonly meant the lowest tested concentration that kills the bacteria rather than only halting them. One may read the IC50 as the concentration needed to halve the response being measured. The term EC50 denotes the concentration at which the effect is half-maximal. A higher EC50 goes with a less potent agent. Broadly, the Km is the concentration of substrate that gives half-maximal velocity. Regarding `O=S(=O)(O)c1cccc2cccc(Nc3ccccc3)c12` [ANS, 8-anilino-1-naphthalenesulfonic acid], in [1], the “IC50 values (antioxidative potential)” value lay in the range of 0.027 to 153 µg/mL. Further, the MBC (in the series with S. aureus ATCC 25923; in [5]) was 400 µg/mL (≈ 1340 µM) each time. Moreover, the IC50 in series [2] amounted to 247 µg/mL (≈ 825 µM); in series [4], 322 µg/mL (≈ 1080 µM); in series [6] it was 382 µg/mL (≈ 1280 µM); in series [9] it was 295 µg/mL (≈ 985 µM). Further, in the series “DPPH assay (antioxidant)”, the “IC50 DPPH” value is 153 µg/mL (≈ 511 µM). The IC50 at 24 h in series [3] was not below 247 µg/mL. The same compound returned an EC50 in the series with Vibrio fisheri of 19 µg/mL (≈ 63.5 µM). The “IC50 ABTS” value in the series “ABTS assay (antioxidant)” is 0.027 µg/mL (≈ 0.0902 µM). In series [7], the “Eo vs. NHE (oxidation potential)” value was 0.768 V. The Km in the series on laccase (LAC) came out at 435 µM. Besides, the “IC50 Luminol” value in [8] is 6 µg/mL (≈ 20 µM).
